Measurements reported in patent publication US12503476B2, “Ring-fused 2-pyridone compounds, methods for preparation thereof and their use in the treatment and/or prevention of a disease involving gram-positive bacteria” (QURETECH BIO AB, priority 2020, dated 2025).
≈ marks a conversion by molar mass, not a printed value. Where two headings read alike, the source gives them in different places.

Tests used:
MRSA [1] = test: Minimum Inhibitory Concentration (MIC) assay, MRSA; format: cell-based, Methicillin-resistant Staphylococcus aureus; details: 24 h, no antibiotic, 37° C., n.d. = activity not observed at the concentrations tested, read-out: MIC for MRSA
Procedure: (§1) The cultures (200 μl) were incubated at 37° C. for 24 h. […] The MIC was measured in micromolar concentration, i.e. μM. Objectively, this was determined by measuring the optical density (i.e. OD) of the test cultures at 600 nm using a spectrophotometer. As used herein, OD600 stands for optical density at a wavelength of 600 nm (i.e. 600 nanometers).

E. faecalis [2] = test: Minimum Bactericidal Concentration (MBC) assay, E. faecalis; details: for MBC: Enterococcus faecalis, read-out: MBC for E. faecalis; for MBC for E. faecalis: Table 3, compound alone, no antibiotic, MIC cultures plated on BHI, second figure of MIC/MBC, n.d. = activity not observed at the concentrations tested
E. faecalis OG1RF = test: Combined activity with gentamicin, vancomycin or ampicillin, E. faecalis OG1RF; format: cell-based, Enterococcus faecalis; details: gentamicin 16 μg/ml; for Synergistic effect when combined with gentamicin: 24 h; for E. faecalis activity, combination with gentamicin compared to gentamicin alone, compound alone and comparative example alone / E. faecalis activity, combination with gentamicin compared to the combination of the comparative example and gentamicin: subinhibitory compound 1-4 μM, OD600 24 h
Procedure: […]. The concentrations used in the experiments with E. faecalis OG1RF were 16 μg/ml gentamicin, 1 μg/ml vancomycin or 1 μg/ml ampicillin. In experiments where combinations were tested against MRSA 1369, 0.05 μg/ml gentamicin, 1 μg/ml vancomycin or 16 μg/ml ampicillin was used.
Bacterial cultures (190 μl) at a starting OD=0.001 at OD600 were incubated together with either subinhibitory concentrations of gentamicin/vancomycin/ampicillin or compound alone, or a combination of the two. The cultures (200 μl) were incubated at 37° C. for 24 h. A control sample without compound and gentamicin/vancomycin/ampicillin but containing compound vehicle (DMSO) and gentamicin/vancomycin/ampicillin vehicle (MQ water) was performed the same way. After 24 h, the effect on bacterial growth compared to untreated control samples was determined by measuring optical density at 600 nm with a spectrophotometer.
[…]. MIC/MBC values for the compounds administered alone are also shown for comparison. Unless otherwise stated, the compound was provided in a concentration of 1 μM.

E. faecalis [3] = test: Minimum Inhibitory Concentration (MIC) assay, E. faecalis; format: cell-based, Enterococcus faecalis; details: for MIC: first figure of MIC/MBC, read-out: MIC for E. faecalis; for Growth inhibition of the pathogen of interest compared to the compound of Example 14 in WO 2018/229141: conclusion from Table 3 (E. faecalis and MRSA)
Procedure: as §1

MRSA [4] = test: Minimum Bactericidal Concentration (MBC) assay, MRSA; details: compound alone, no antibiotic, MIC cultures plated on BHI, second figure of MIC/MBC, n.d. = activity not observed at the concentrations tested; for MBC: Staphylococcus aureus, MRSA, read-out: MBC for MRSA, Table 3; for MBC for MRSA: Table 3
[5] = Staphylococcus aureus, MRSA, Table 3, compound alone, OD600, first figure of MIC/MBC
[6] = compound 1 μM, n.d. = activity not observed
[7] = Enterococcus faecalis, 24 h, Table 3, compound alone, no antibiotic, 24 h, 37° C., OD600, n.d. = activity not observed at the concentrations tested
[8] = Enterococcus faecalis, Table 4, compound administered alone, n.d. = activity not observed
[9] = Table 3, compound alone, OD600, first figure of MIC/MBC
[10] = Table 3, compound alone, no antibiotic, 24 h, 37° C., OD600, n.d. = activity not observed at the concentrations tested

CN(C)c1c(Cc2cccc3ccccc23)c(C2CC2)c2n(c1=O)C1(C(=O)O)C[C@@H](c3cccc(Cl)c3)C1S2 (stereo partly shown) [Example 13]
MIC (MRSA [1]; [5]): 2 µM (≈ 1.11 µg/mL) | MBC (E. faecalis [2]): 25 µM (≈ 13.9 µg/mL) | OD600 at 24 h when combined with gentamicin (E. faecalis OG1RF; compound 1 μM): OD600 = 0 | Synergistic effect when combined with gentamicin (E. faecalis OG1RF; [6]): Yes | E. faecalis activity, combination with gentamicin compared to gentamicin alone, compound alone and comparative example alone (E. faecalis OG1RF): much larger extent | E. faecalis activity, combination with gentamicin compared to the combination of the comparative example and gentamicin (E. faecalis OG1RF): much larger extent | MIC (E. faecalis [3]; [7]): 3 µM (≈ 1.67 µg/mL) | MIC (E. faecalis [3]; [8]): 3 µM (≈ 1.67 µg/mL) | Growth inhibition of the pathogen of interest compared to the compound of Example 14 in WO 2018/229141 (E. faecalis [3]; compound alone): substantially similar extent or to a higher extent | MBC (MRSA [4]): 4 µM (≈ 2.23 µg/mL)

O=C(O)C12C[C@H](Sc3ccccc3)C1Sc1c(C3CC3)c(Cc3cccc4ccccc34)cc(=O)n12 (stereo partly shown) [Example 28]
MIC (MRSA [1]; [5]): 25 µM (≈ 12.8 µg/mL)

O=C(O)C12C[C@@H](c3cccc(C(F)(F)F)c3)C1Sc1c(C3CC3)c(Cc3cccc4ccccc34)cc(=O)n12 (single isomer, unassigned) [Example 1]
MIC (MRSA [1]; [9]): 5 µM (≈ 2.74 µg/mL) | MBC for E. faecalis (E. faecalis [2]): 25 µM | Synergistic effect when combined with gentamicin (E. faecalis OG1RF; compound 2 μM): Yes | MIC (E. faecalis [3]; [8]): 10 µM (≈ 5.48 µg/mL) | MIC (E. faecalis [3]; [10]): 10 µM (≈ 5.48 µg/mL) | MBC for MRSA (MRSA [4]): 10 µM

O=c1cc(Cc2cccc3ccccc23)c(C2CC2)c2n1C(CCB(O)O)CS2 (stereo not shown) [Example 35]
MIC (MRSA [1]; [5]): 50 µM (≈ 20.3 µg/mL) | OD600 at 24 h when combined with gentamicin (E. faecalis OG1RF; compound 25 μM): OD600 = 0 | Synergistic effect when combined with gentamicin (E. faecalis OG1RF; compound 25 μM): Yes

CN(C)c1c(Cc2cccc3ccccc23)c(C2CC2)c2n(c1=O)C1(C(=O)O)C[C@@H](c3cccc(C(F)(F)F)c3)C1S2 (stereo partly shown) [Example 5]
MIC (MRSA [1]; [5]): 3 µM (≈ 1.77 µg/mL) | MBC (E. faecalis [2]): 25 µM (≈ 14.8 µg/mL) | OD600 at 24 h when combined with gentamicin (E. faecalis OG1RF; compound 1 μM): OD600 = 0 | Synergistic effect when combined with gentamicin (E. faecalis OG1RF; [6]): Yes | E. faecalis activity, combination with gentamicin compared to gentamicin alone, compound alone and comparative example alone (E. faecalis OG1RF): much larger extent | E. faecalis activity, combination with gentamicin compared to the combination of the comparative example and gentamicin (E. faecalis OG1RF): much larger extent | MIC (E. faecalis [3]; [7]): 5 µM (≈ 2.95 µg/mL) | MIC (E. faecalis [3]; [8]): 5 µM (≈ 2.95 µg/mL) | Growth inhibition of the pathogen of interest compared to the compound of Example 14 in WO 2018/229141 (E. faecalis [3]; compound alone): substantially similar extent or to a higher extent | MBC (MRSA [4]): 4 µM (≈ 2.36 µg/mL)

Cc1cc(C)cc([C@@H]2CC3(C(=O)O)C2Sc2c(C4CC4)c(Cc4cccc5ccccc45)cc(=O)n23)c1 (stereo partly shown) [Example 21]
MIC (MRSA [1]; [5]): 3 µM (≈ 1.52 µg/mL) | MBC (E. faecalis [2]): 25 µM (≈ 12.7 µg/mL) | OD600 at 24 h when combined with gentamicin (E. faecalis OG1RF; compound 1 μM): OD600 = 0.1 | Synergistic effect when combined with gentamicin (E. faecalis OG1RF; [6]): Yes | E. faecalis activity, combination with gentamicin compared to gentamicin alone, compound alone and comparative example alone (E. faecalis OG1RF): much larger extent | MIC (E. faecalis [3]; [7]): 5 µM (≈ 2.54 µg/mL) | MIC (E. faecalis [3]; [8]): 5 µM (≈ 2.54 µg/mL) | Growth inhibition of the pathogen of interest compared to the compound of Example 14 in WO 2018/229141 (E. faecalis [3]; compound alone): substantially similar extent or to a higher extent | MBC (MRSA [4]): 7.5 µM (≈ 3.81 µg/mL)

CCCCOc1ccc([C@@H]2CC3(C(=O)O)C2Sc2c(C4CC4)c(Cc4cccc5ccccc45)cc(=O)n23)cc1C (stereo partly shown) [Example 23]
MIC (MRSA [1]; [5]): 3 µM (≈ 1.7 µg/mL) | OD600 at 24 h when combined with gentamicin (E. faecalis OG1RF; compound 1 μM): OD600 = 0 | Synergistic effect when combined with gentamicin (E. faecalis OG1RF; [6]): Yes | MIC (E. faecalis [3]; [7]): 3 µM (≈ 1.7 µg/mL) | MIC (E. faecalis [3]; [8]): 3 µM (≈ 1.7 µg/mL) | Growth inhibition of the pathogen of interest compared to the compound of Example 14 in WO 2018/229141 (E. faecalis [3]; compound alone): substantially similar extent or to a higher extent | MBC (MRSA [4]): 5 µM (≈ 2.83 µg/mL)

O=C(O)C12C[C@@H](c3cccc(Cl)c3)C1Sc1c(C3CC3)c(Cc3cccc4ccccc34)cc(=O)n12 (stereo partly shown) [Example 11]
MIC (MRSA [1]; [9]): 4 µM (≈ 2.06 µg/mL) | MBC for E. faecalis (E. faecalis [2]): 25 µM | E. faecalis activity, combination with gentamicin compared to gentamicin alone, compound alone and comparative example alone (E. faecalis OG1RF): much larger extent | MIC (E. faecalis [3]; [10]): 4 µM (≈ 2.06 µg/mL) | Growth inhibition of the pathogen of interest compared to the compound of Example 14 in WO 2018/229141 (E. faecalis [3]; compound alone): substantially similar extent or to a higher extent | MBC for MRSA (MRSA [4]): 10 µM

O=C(O)C12C[C@@H](c3c(Cl)cccc3Cl)C1Sc1c(C3CC3)c(Cc3cc4ccccc4s3)cc(=O)n12 (stereo partly shown) [Example 34]
MIC (MRSA [1]; [5]): 5 µM (≈ 2.77 µg/mL)

Cc1cc(C)cc([C@@H]2CC3(C(=O)O)C2Sc2c(C4CC4)c(Cc4cccc(Cl)c4Cl)cc(=O)n23)c1 (stereo partly shown) [Example 31]
MIC (MRSA [1]; [5]): 5 µM (≈ 2.63 µg/mL)

CCCOc1ccc([C@@H]2CC3(C(=O)O)C2Sc2c(C4CC4)c(Cc4cccc5ccccc45)cc(=O)n23)cc1C (stereo partly shown) [Example 22]
MIC (MRSA [1]; [5]): 4 µM (≈ 2.21 µg/mL) | E. faecalis activity, combination with gentamicin compared to gentamicin alone, compound alone and comparative example alone (E. faecalis OG1RF): much larger extent | E. faecalis activity, combination with gentamicin compared to the combination of the comparative example and gentamicin (E. faecalis OG1RF): much larger extent | MIC (E. faecalis [3]; [7]): 4 µM (≈ 2.21 µg/mL) | Growth inhibition of the pathogen of interest compared to the compound of Example 14 in WO 2018/229141 (E. faecalis [3]; compound alone): substantially similar extent or to a higher extent | MBC (MRSA [4]): 4 µM (≈ 2.21 µg/mL)

O=C(O)C12C[C@@H](c3ccc(C(F)(F)F)cc3)C1Sc1c(C3CC3)c(Cc3cccc4ccccc34)cc(=O)n12 (stereo partly shown) [Example 8]
MIC (MRSA [1]; [5]): 5 µM (≈ 2.74 µg/mL) | MIC (E. faecalis [3]; [7]): 5 µM (≈ 2.74 µg/mL) | Growth inhibition of the pathogen of interest compared to the compound of Example 14 in WO 2018/229141 (E. faecalis [3]; compound alone): substantially similar extent or to a higher extent | MBC (MRSA [4]): 10 µM (≈ 5.48 µg/mL)

COc1c(Cc2cccc3ccccc23)c(N(C)C)c(=O)n2c1SC1[C@H](c3cccc(C(F)(F)F)c3)CC12C(=O)O (stereo partly shown) [Example 29]
MIC (MRSA [1]; [5]): 7.5 µM (≈ 4.35 µg/mL) | MIC (E. faecalis [3]; [7]): 25 µM (≈ 14.5 µg/mL) | MBC (MRSA [4]): 7.5 µM (≈ 4.35 µg/mL)

O=C(O)C12C[C@@H](Sc3ccccc3)C1Sc1c(C3CC3)c(Cc3cccc4ccccc34)cc(=O)n12 (stereo partly shown) [Example 27]
MIC (MRSA [1]; [5]): 10 µM (≈ 5.12 µg/mL)

O=C(O)C12C[C@H](c3cc(Cl)cc(Cl)c3)C1Sc1c(C3CC3)c(Cc3cccc4ccccc34)cc(=O)n12 (stereo partly shown) [Example 16]
MIC (MRSA [1]; [5]): 10 µM (≈ 5.48 µg/mL) | MIC (E. faecalis [3]; [7]): 10 µM (≈ 5.48 µg/mL)

O=C(O)C12C[C@@H](c3cccc(C(F)(F)F)c3)C1Sc1c(C3CC3)c(Cc3cccc4ccccc34)cc(=O)n12 (single isomer, unassigned) [Example 2]
MIC (MRSA [1]; [9]): 5 µM (≈ 2.74 µg/mL) | OD600 at 24 h when combined with gentamicin (E. faecalis OG1RF; compound 1 μM): OD600 = 0.1 | Synergistic effect when combined with gentamicin (E. faecalis OG1RF; [6]): Yes | MIC (E. faecalis [3]; [10]): 10 µM (≈ 5.48 µg/mL) | MIC (E. faecalis [3]; Table 4, compound administered alone, n.d. = activity not observed): 10 µM (≈ 5.48 µg/mL) | MBC for MRSA (MRSA [4]): 10 µM

O=C(O)C12C[C@@H](c3cccc(Cl)c3)C1Sc1c(C3CC3)c(Cc3cccc4ccccc34)cc(=O)n12 (stereo partly shown) [Example 10]
MIC (MRSA [1]; [9]): 5 µM (≈ 2.57 µg/mL) | MIC (E. faecalis [3]; [10]): 10 µM (≈ 5.14 µg/mL) | MBC for MRSA (MRSA [4]): 10 µM

O=c1cc(Cc2cccc3ccccc23)c(-c2cccc(C(F)(F)F)c2)c2n1C(CCB(O)O)CS2 (stereo not shown) [Example 37]
MIC (MRSA [1]; [5]): 50 µM (≈ 25.5 µg/mL) | OD600 at 24 h when combined with gentamicin (E. faecalis OG1RF; compound 10 μM): OD600 = 0 | Synergistic effect when combined with gentamicin (E. faecalis OG1RF; compound 10 μM): Yes
